Patent publication US20180289713A1, “COMPOUNDS FOR TREATING AMYOTROPHIC LATERAL SCLEROSIS” (Hoffmann-La Roche Inc., priority 2015, published 2018)

System: SMN protein in SMA patient fibroblast cells
Assay: SMN protein assay in cultured cells (SMN HTRF)
Type: cell-based, human
Settings: concentration producing 1.5 times SMN protein vs vehicle; SMA patient fibroblasts, 48 hours, 7-point curve
From the text: The term “EC1.5× concentration for SMN protein expression” (or “EC1.5× SMN protein”) is defined as that concentration of test compound that is effective in producing 1.5 times the amount of SMN protein in an SMA patient fibroblast cell compared to the amount produced from the vehicle control.
The SMN HTRF (homogeneous time resolved fluorescence) assay is used to quantify the level of SMN protein in SMA patient fibroblast cells treated with test compounds. Materials used and respective sources are listed below in Table 3.
Cells are thawed and cultured in DMEM-10% FBS for 72 hours. Cells are trypsinized, counted and re-suspended to a concentration of 25,000 cells/mL in DMEM-10% FBS. The cell suspensions are plated at 5,000 cells per well in a 96 well microtiter plate and incubated for 3 to […]. Test compounds are serially diluted 3.16-fold in 100% DMSO to generate a 7-point concentration curve. 1 μL of test compound solution is transferred to cell-containing wells and cells are incubated for 48 hours in a cell culture incubator (37° C., 5% CO2, 100% relative humidity). Triplicate samples are set up for each test compound concentration. After 48 hours, the supernatant is removed from the wells and 25 μL of the RIPA lysis buffer, containing protease inhibitors, is added to the wells and incubated with shaking at room temperature for 1 hour. 25 μL of the diluent is added and then 35 μL of the resulting lysate is transferred to a 384-well plate, where each well contains 5 μL of the antibody solution (1:100 dilution of anti-SMN d2 and anti-SMN kryptate in SMN reconstitution buffer). The plate is centrifuged for 1 minute to bring the solution to the bottom of the wells, then incubated overnight at room temperature. Fluorescence for each well of the plate at 665 nm and 620 nm is measured on an EnVision multilabel plate reader (Perkin-Elmer).
The normalized fluorescence signal is calculated for each sample, Blank and vehicle control well by dividing the signal at 665 nm by the signal at 620 nm. Normalizing the signal accounts for possible fluorescence quenching due to the matrix effect of the lysate. The ΔF value (a measurement of SMN protein abundance as a percent value) for each sample well is calculated by subtracting the normalized average fluorescence for the Blank control wells from the normalized fluorescence for each sample well, then dividing this difference by the normalized average fluorescence for the Blank control wells and multiplying the resulting value by 100. The ΔF value for each sample well represents the SMN protein abundance from test compound-treated samples. The ΔF value for each sample well is divided by the ΔF value for the vehicle control wells to calculate the fold increase in SMN protein abundance relative to the vehicle control. Table 4 provides EC1.5× concentrations for SMN protein expression that was obtained from the 7-point concentration data generated according to the above procedure for particular compounds of the present invention.
Table 5 provides the maximum fold increase of SMN protein that was obtained from the 7-point concentration data generated according to the above procedure for particular compounds of the present invention

Row | SMILES | EC1.5x SMN protein [nM]
1 | Cc1cn2nc(-c3cc(=O)n4cc(N5CCN6CCC[C@@]6(C)C5)ccc4n3)cc(C)c2n1 [Example 5, 7-[(8aS)-8a-methyl-1,3,4,6,7,8-hexahydropyrrolo[1,2-a]pyrazin-2-yl]-2-(2,8-dimethylimidazo[1,2-b]pyridazin-6-yl)pyrido[1,2-a]pyrimidin-4-one] | 4.1
2 | Cc1cn2nc(-c3cc(=O)n4cc(N5CCN6CCC[C@]6(C)C5)ccc4n3)cc(C)c2n1 [Example 6, 7-[(8aR)-8a-methyl-1,3,4,6,7,8-hexahydropyrrolo[1,2-a]pyrazin-2-yl]-2-(2,8-dimethylimidazo[1,2-b]pyridazin-6-yl)pyrido[1,2-a]pyrimidin-4-one] | 11
3 | Cc1cn2nc(-c3cc(=O)n4cc(N5CCN[C@@H](C)C5)ccc4n3)cc(C)c2n1 [Example 8, 2-(2,8-dimethylimidazo[1,2-b]pyridazin-6-yl)-7-[(3S)-3-methylpiperazin-1-yl]pyrido[1,2-a]pyrimidin-4-one] | 5.9
4 | Cc1cn2nc(-c3cc(=O)n4cc(N5CCN[C@H](C)C5)ccc4n3)cc(C)c2n1 [Example 9, 2-(2,8-dimethylimidazo[1,2-b]pyridazin-6-yl)-7-[(3R)-3-methylpiperazin-1-yl]pyrido[1,2-a]pyrimidin-4-one] | 2.5
5 | Cc1cn2nc(-c3cc(=O)n4cc(N5CCN[C@@H](C)C5)ccc4n3)ccc2n1 [Example 11, 2-(2-methylimidazo[1,2-b]pyridazin-6-yl)-7-[(3S)-3-methylpiperazin-1-yl]pyrido[1,2-a]pyrimidin-4-one] | 7
6 | Cc1cn2nc(-c3cc(=O)n4cc(N5CCN[C@H](C)C5)ccc4n3)ccc2n1 [Example 12, 2-(2-methylimidazo[1,2-b]pyridazin-6-yl)-7-[(3R)-3-methylpiperazin-1-yl]pyrido[1,2-a]pyrimidin-4-one] | 7.5
7 | Cc1cn2nc(-c3cc(=O)n4cc(N5CCCNCC5)ccc4n3)ccc2n1 [Example 13, 7-(1,4-diazepan-1-yl)-2-(2-methylimidazo[1,2-b]pyridazin-6-yl)pyrido[1,2-a]pyrimidin-4-one] | 3
8 | Cc1cn2nc(-c3cc(=O)n4cc(N5CCN6CCC[C@@]6(C)C5)ccc4n3)ccc2n1 [Example 16, 7-[(8aS)-8a-methyl-1,3,4,6,7,8-hexahydropyrrolo[1,2-a]pyrazin-2-yl]-2-(2-methylimidazo[1,2-b]pyridazin-6-yl)pyrido[1,2-a]pyrimidin-4-one] | 3
9 | Cc1cn2nc(-c3cc(=O)n4cc(N5CC[C@@H](N6CCCC6)C5)ccc4n3)cc(C)c2n1 [Example 18, 2-(2,8-dimethylimidazo[1,2-b]pyridazin-6-yl)-7-[(3R)-3-pyrrolidin-1-ylpyrrolidin-1-yl]pyrido[1,2-a]pyrimidin-4-one] | 25
10 | Cc1cn2nc(-c3cc(=O)n4cc(N5CCNC6(CC6)C5)ccc4n3)cc(C)c2n1 [Example 20, 7-(4,7-diazaspiro[2.5]octan-7-yl)-2-(2,8-dimethylimidazo[1,2-b]pyridazin-6-yl)pyrido[1,2-a]pyrimidin-4-one] | 37
11 | Cc1cn2nc(-c3cc(=O)n4cc(N5CCN[C@@H](C)C5)cc(C)c4n3)cc(C)c2n1 [Example 24, 2-(2,8-dimethylimidazo[1,2-b]pyridazin-6-yl)-9-methyl-7-[(3S)-3-methylpiperazin-1-yl]pyrido[1,2-a]pyrimidin-4-one] | 4.7
12 | Cc1cn2nc(-c3cc(=O)n4cc(N5C[C@H](C)N[C@@H](C)C5)ccc4n3)cc(C)c2n1 [Example 29, 2-(2,8-dimethylimidazo[1,2-b]pyridazin-6-yl)-7-[(3S,5S)-3,5-dimethylpiperazin-1-yl]pyrido[1,2-a]pyrimidin-4-one] | 2.1
13 | Cc1cn2nc(-c3cc(=O)n4cc(N5C[C@H](C)N[C@@H](C)C5)ccc4n3)ccc2n1 [Example 32, 7-[(3S,5S)-3,5-dimethylpiperazin-1-yl]-2-(2-methylimidazo[1,2-b]pyridazin-6-yl)pyrido[1,2-a]pyrimidin-4-one] | 4
14 | Cc1cn2nc(-c3cc(=O)n4cc(N5CCN[C@@H](C)C5)cc(C)c4n3)ccc2n1 [Example 33, 9-methyl-2-(2-methylimidazo[1,2-b]pyridazin-6-yl)-7-[(3S)-3-methylpiperazin-1-yl]pyrido[1,2-a]pyrimidin-4-one] | 4
15 | Cc1cn2nc(-c3cc(=O)n4cc(N5CCN[C@H](C)C5)cc(C)c4n3)ccc2n1 [Example 34, 9-methyl-2-(2-methylimidazo[1,2-b]pyridazin-6-yl)-7-[(3R)-3-methylpiperazin-1-yl]pyrido[1,2-a]pyrimidin-4-one] | 4.4
16 | Cc1cn2nc(-c3cc(=O)n4cc(N5CCNC6(CC6)C5)cc(C)c4n3)ccc2n1 [Example 37, 7-(4,7-diazaspiro[2.5]octan-7-yl)-9-methyl-2-(2-methylimidazo[1,2-b]ipyridazin-6-yl)pyrido[1,2-a]pyrimidin-4-one] | 45
17 | Cc1cn2nc(-c3cc(=O)n4cc(N5C[C@H](C)N[C@@H](C)C5)cc(C)c4n3)ccc2n1 [Example 38, 7-[(3S,5S)-3,5-dimethylpiperazin-1-yl]-9-methyl-2-(2-methylimidazo[1,2-b]pyridazin-6-yl)pyrido[1,2-a]pyrimidin-4-one] | 3.1
